How the values were obtained:
Assay in all cases: relative viability (nuclei count vs DMSO), 5 days (fraction); higher = more cells survive
[1] = compound: CN(C/C=C/C1=CC=C(C=C1)Cl)CC2=CC=CC=C2N(CCO)S(=O)(=O)C3=CC=C(C=C3)OC [KN-93] + CC(C)C[C@H](NC(=O)[C@H](Cc1ccccc1)NC(=O)c1cnccn1)B(O)O [Bortezomib] (partner 0.002 µM)
In short: (§1)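 Dosing by pin tool came one day after lung cancer cell lines were seeded in 1536-well plates, using either one drug or a fixed anchor-drug dose plus five library-drug doses (not always all listed) in √10 steps. After 5 days, nuclei were counted on 4× images. Relative viability is treated-well nuclei count divided by vehicle-well nuclei count, and values are medians of duplicate plates.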

[2] = compound: CN(C/C=C/C1=CC=C(C=C1)Cl)CC2=CC=CC=C2N(CCO)S(=O)(=O)C3=CC=C(C=C3)OC [KN-93] + C[C@]1(O)C[C@@H](c2nc(-c3ccc4ccc(-c5ccccc5)nc4c3)c3c(N)nccn32)C1 [Linsitinib] (partner 1 µM)
In short: as §1

[3] = compound: CN(C/C=C/C1=CC=C(C=C1)Cl)CC2=CC=CC=C2N(CCO)S(=O)(=O)C3=CC=C(C=C3)OC [KN-93] + Cc1cc(Nc2cc(N3CCN(C)CC3)nc(Sc3ccc(NC(=O)C4CC4)cc3)n2)n[nH]1 [Tozasertib] (partner 0.1 µM)
In short: as §1

[4] = compound: CN(C/C=C/C1=CC=C(C=C1)Cl)CC2=CC=CC=C2N(CCO)S(=O)(=O)C3=CC=C(C=C3)OC [KN-93] + N=C(N)NC(=N)NCCc1ccccc1 [Phenformin] (partner 250 µM)
In short: as §1

[5] = compound: CN(C/C=C/C1=CC=C(C=C1)Cl)CC2=CC=CC=C2N(CCO)S(=O)(=O)C3=CC=C(C=C3)OC [KN-93] + Nc1nc2[nH]cc(CCc3ccc(C(=O)N[C@@H](CCC(=O)O)C(=O)O)cc3)c2c(=O)[nH]1 [Pemetrexed] (partner 0.2 µM)
In short: as §1

Cell Line | relative viability ([1]; first compound 0.08 µM) | relative viability ([1]; first compound 0.253 µM) | relative viability ([1]; first compound 2.53 µM) | relative viability ([1]; first compound 8 µM) | relative viability ([2]; first compound 0.08 µM) | relative viability ([2]; first compound 0.253 µM) | relative viability ([2]; first compound 2.53 µM) | relative viability ([2]; first compound 8 µM) | relative viability ([3]; first compound 0.08 µM) | relative viability ([3]; first compound 0.253 µM) | relative viability ([3]; first compound 2.53 µM) | relative viability ([3]; first compound 8 µM) | relative viability ([4]; first compound 0.08 µM) | relative viability ([4]; first compound 0.253 µM) | relative viability ([4]; first compound 2.53 µM) | relative viability ([4]; first compound 8 µM) | relative viability ([5]; first compound 0.08 µM) | relative viability ([5]; first compound 0.253 µM) | relative viability ([5]; first compound 2.53 µM) | relative viability ([5]; first compound 8 µM)
NCI-H2126 | 1.07 | 1.08 | 1.19 | 1.09 | 0.785 | 0.673 | 0.713 | 0.683 | 0.858 | 0.805 | 0.862 | 0.554 | 0.524 | 0.483 | 0.502 | 0.481 | 0.541 | 0.64 | 0.69 | 0.654
NCI-H1666 | 0.753 | 0.669 | 0.945 | 0.607 | 0.837 | 0.672 | 1.11 | 0.588 | 0.599 | 0.662 | 0.57 | 0.454 | 0.611 | 0.772 | 0.656 | 0.576 | 0.844 | 1 | 0.818 | 0.821
NCI-H23 | 0.878 | 1.07 | 1.14 | 0.893 | 0.522 | 0.617 | 0.659 | 0.53 | 0.327 | 0.359 | 0.439 | 0.267 | 0.705 | 0.889 | 0.88 | 0.609 | 0.685 | 0.866 | 0.883 | 0.502
SW 1573 | 1.04 | 1.23 | 0.973 | 0.763 | 0.906 | 0.884 | 0.714 | 0.349 | 0.177 | 0.22 | 0.191 | 0.19 | 0.319 | 0.389 | 0.454 | 0.275 | 1.07 | 0.916 | 0.981 | 0.307
LCLC-97TM1 | 0.636 | 0.576 | 0.906 | 0.466 | 0.162 |  | 0.2 | 0.142 | 0.254 | 0.229 | 0.226 | 0.194 | 0.418 | 0.494 | 0.488 | 0.407 | 0.199 | 0.165 | 0.179 | 0.145
HOP-62 | 0.442 | 1.28 | 0.958 | 0.711 | 0.938 | 1.15 | 1.12 | 0.982 | 0.395 | 0.44 | 0.401 | 0.273 | 0.525 | 0.835 | 0.849 | 0.741 | 0.28 | 0.383 | 0.346 | 0.322
LXF-289 | 0.853 | 1.12 | 1.12 | 0.833 | 0.963 | 1 | 0.964 | 0.652 | 0.201 | 0.25 | 0.215 | 0.147 | 0.515 | 0.568 | 0.597 | 0.504 | 0.925 | 0.926 | 0.977 | 0.684
NCI-H1915 | 0.929 | 1.31 | 1.1 | 0.54 | 1.03 | 1.16 | 1.12 | 1.03 | 0.388 | 0.446 | 0.413 | 0.308 | 0.382 | 0.421 | 0.408 | 0.359 | 0.471 | 0.601 | 0.515 | 0.506
UMC-11 |  | 0.919 | 0.799 | 0.197 |  | 1.19 | 1.13 | 0.713 | 0.178 | 0.199 | 0.188 | 0.203 | 0.381 | 0.365 | 0.355 | 0.277 | 0.697 | 1.01 | 1.05 | 0.467
NCI-H838 | 0.735 | 0.919 | 1.16 | 0.796 | 0.989 | 0.905 | 1.15 | 0.771 | 0.256 | 0.257 | 0.252 | 0.235 | 0.648 | 0.565 | 0.596 | 0.547 | 0.258 | 0.278 | 0.25 | 0.214
NCI-H1437 | 0.465 | 0.564 | 0.53 | 0.365 | 0.879 | 1.41 | 1.04 | 0.487 | 0.37 | 0.433 | 0.383 | 0.264 | 0.396 | 0.292 | 0.352 | 0.31 | 0.317 | 0.312 | 0.247 | 0.19
NCI-H1975 | 0.334 | 0.38 | 0.33 | 0.249 | 0.789 | 0.943 | 0.992 | 0.546 | 0.702 | 0.849 | 0.676 | 0.146 | 0.423 | 0.463 | 0.456 | 0.4 | 0.277 | 0.299 | 0.309 | 0.221
NCI-H441 |  | 0.672 | 0.365 | 0.22 | 0.48 | 0.818 | 0.799 | 0.245 | 0.639 | 0.806 | 0.553 | 0.435 | 0.828 | 1.06 | 0.921 | 0.779 |  | 0.242 | 0.293 | 0.268
PC-14 | 0.686 | 0.899 | 0.933 | 0.734 | 0.855 | 0.976 | 1.07 | 0.824 | 0.642 | 0.544 | 0.583 | 0.21 | 0.593 | 0.685 | 0.596 | 0.547 | 0.154 | 0.126 | 0.139 | 0.131
NCI-H520 |  | 0.883 | 0.914 | 0.511 |  | 1.21 | 1.12 | 0.682 | 0.455 | 0.447 | 0.459 | 0.382 | 0.732 | 0.769 | 0.842 | 0.451 | 0.72 | 0.738 | 0.658 | 0.422
HCC-44 | 0.834 | 0.801 | 1.03 | 0.751 | 0.616 | 0.613 | 0.667 | 0.462 | 0.912 | 0.809 | 0.863 | 0.526 | 0.314 | 0.202 | 0.331 | 0.16 | 0.652 | 0.615 | 0.667 | 0.678
